Data set [1] concerns NIH3T3. As to the kind of experiment: Antiproliferative activity against TGFbeta-induced mouse NIH3T3 cells assessed as cell growth inhibition at 1 mM incubated for 48 hrs by CCK-8 assay. The data set is classed as functional. The note with it: NIH3T3, 48 h.
The subject of data set [2] is NIH3T3. The experiment in a line: Antiproliferative activity against TGFbeta-induced mouse NIH3T3 cells assessed as cell growth inhibition incubated for 48 hrs by CCK-8 assay. The data set is classed as functional, cell-based. The note with it: NIH3T3, 48 h. In general terms: Tetrazolium assays rely on reduction of a dye to a coloured formazan, in cell work by metabolically active cells.

Data set [3] has as its system NIH3T3. The experiment in a line: Anti-fibrogenic activity against mouse NIH3T3 cells assessed as inhibition of TGFbeta-induced Fn protein expression at 0.5 to 10 mM incubated for 48 hrs by western blot assay. The data set is classed as functional, cell-based. The note with it: dose 0.5-10 mM, DDE = dose-dependent effect.
Data set [4] has as its system NIH3T3. As to the kind of experiment: Induction of apoptosis in TGFbeta-induced mouse NIH3T3 cells assessed as increase in apoptosis rate at 10 mM incubated for 48 hrs by Annexin V-FITC/PI staining based flow cytometry. The data set is classed as functional. For orientation: Flow cytometry measures light scatter and fluorescence of single cells or particles in a stream.

In data set [5] the test system is NIH3T3. The experiment in a line: Anti-fibrogenic activity against mouse NIH3T3 cells assessed as inhibition of TGFbeta-induced COL1 protein expression at 0.5 to 10 mM incubated for 48 hrs by western blot assay. The settings on record: dose 0.5-10 mM, DDE = dose-dependent effect. The data set is classed as functional, cell-based.
A short description of data set [6]: Metabolic stability in human liver microsomes assessed as intrinsic clearance measured upto 45 mins in presence of NADPH by LC/MS analysis. It counts as ADME, Microsome. The note with it: read-out: CLH. On the technique in general: Liver microsomes are vesicles of endoplasmic reticulum, rich in cytochrome P450 enzymes.
Data set [7] in a line: Metabolic stability in rat liver microsomes assessed as intrinsic clearance measured upto 45 mins in presence of NADPH by LC/MS analysis. It counts as ADME, Microsome. The note with it: read-out: CLH.
For data set [8], the system named is NIH3T3. As to the kind of experiment: Anti-fibrogenic activity against mouse NIH3T3 cells assessed as inhibition of TGFbeta-induced alpha-SMA protein expression at 0.5 to 10 mM incubated for 48 hrs by western blot assay. The note with it: dose 0.5-10 mM, DDE = dose-dependent effect. The data set is classed as functional, cell-based.
Data set [9] can be described thus: Metabolic stability in human liver microsomes assessed as half life measured upto 45 mins in presence of NADPH by LC/MS analysis. It counts as ADME, Microsome.
Data set [10] is described as follows: Metabolic stability in rat liver microsomes assessed as half life measured upto 45 mins in presence of NADPH by LC/MS analysis. It counts as ADME, Microsome.
The nature of data set [11]: AUC (0-t) in rat at 2 mg/kg,iv by HPLC-UV analysis. The data set is classed as ADME, organism-based. Also on record: dose 2 mg/kg, route iv. The note with it: in vivo.
Data set [12] relates to NIH3T3. The experiment in a line: Anti-fibrogenic activity against mouse NIH3T3 cells assessed as inhibition of TGFbeta-induced COL1 protein expression at 0.01 to 0.2 mM incubated for 48 hrs by western blot assay. It counts as functional, cell-based. The note with it: dose 0.01-0.2 mM, DDE = dose-dependent effect.
Data set [13] can be described thus: AUC (0-infinity) in rat at 10 mg/kg,po by HPLC-UV analysis. It counts as ADME, organism-based. Also on record: time infinity, dose 10 mg/kg, route po. The settings on record: in vivo.
Data set [14] is described as follows: AUC (0-infinity) in rat at 2 mg/kg,iv by HPLC-UV analysis. It counts as ADME, organism-based. Also on record: time infinity, dose 2 mg/kg, route iv. The note with it: in vivo.
The nature of data set [15]: Oral bioavailability in rat at 10 mg/kg by HPLC-UV analysis. The note with it: in vivo. The data set is classed as ADME, organism-based.
Data set [16] is described as follows: AUC (0-t) in rat at 10 mg/kg,po by HPLC-UV analysis. The settings on record: in vivo. Also on record: dose 10 mg/kg, route po. It counts as ADME, organism-based.
For data set [17], the system named is NIH3T3. The experiment in a line: Anti-fibrogenic activity against mouse NIH3T3 cells assessed as inhibition of TGFbeta-induced migration rate at 0.1 to 0.4 mM incubated for 48 hrs by wound healing assay. The data set is classed as functional, cell-based. The note with it: dose 0.1-0.4 mM, DDE = dose-dependent effect.
In data set [18] the test system is NIH3T3. The experiment in a line: Anti-fibrogenic activity against mouse NIH3T3 cells assessed as reduction in TGFbeta-induced Smad3 phosphorylation level at 0.01 to 0.2 mM incubated for 48 hrs by western blot assay. It counts as functional, cell-based. The note with it: dose 0.01-0.2 mM, DDE = dose-dependent effect.
Data set [19] in a line: MRT (0 to t) in rat at 10 mg/kg,po by HPLC-UV analysis. The settings on record: in vivo. The data set is classed as ADME, organism-based.
Data set [20] in a line: Cmax in rat at 10 mg/kg,po by HPLC-UV analysis. Also noted: dose 10 mg/kg, route po. The settings on record: in vivo. It counts as ADME, organism-based.
The subject of data set [21] is NIH3T3. As to the kind of experiment: Induction of apoptosis in TGFbeta-induced mouse NIH3T3 cells assessed as increase in apoptosis rate at 0.05 mM incubated for 48 hrs by Annexin V-FITC/PI staining based flow cytometry. The data set is classed as functional.
The nature of data set [22]: Cmax in rat at 2 mg/kg,iv by HPLC-UV analysis. The data set is classed as ADME, organism-based. Also on record: dose 2 mg/kg, route iv. The note with it: in vivo.
Data set [23] is described as follows: Tmax in rat at 10 mg/kg,po by HPLC-UV analysis. It counts as ADME, organism-based. The note with it: in vivo.
Data set [24] deals with NIH3T3. As to the kind of experiment: Anti-fibrogenic activity against mouse NIH3T3 cells assessed as inhibition of TGFbeta-induced Fn protein expression at 0.01 to 0.2 mM incubated for 48 hrs by western blot assay. The data set is classed as functional, cell-based. The settings on record: dose 0.01-0.2 mM, DDE = dose-dependent effect.
Data set [25] can be described thus: MRT (0 to t) in rat at 2 mg/kg,iv by HPLC-UV analysis. The settings on record: in vivo. It counts as ADME, organism-based.
A short description of data set [26]: Half life in rat at 10 mg/kg,po by HPLC-UV analysis. The data set is classed as ADME, organism-based. The note with it: in vivo.
Data set [27] in a line: Tmax in rat at 2 mg/kg,iv by HPLC-UV analysis. It counts as ADME, organism-based. The settings on record: in vivo.
Data set [28] has as its system NIH3T3. The experiment in a line: Anti-fibrogenic activity against mouse NIH3T3 cells assessed as reduction in TGFbeta-induced Smad2 phosphorylation level at 0.01 to 0.2 mM incubated for 48 hrs by western blot assay. The data set is classed as functional, cell-based. The settings on record: dose 0.01-0.2 mM, DDE = dose-dependent effect.
In data set [29] the test system is NIH3T3. As to the kind of experiment: Induction of apoptosis in TGFbeta-induced mouse NIH3T3 cells assessed as increase in apoptosis rate at 0.05 to 0.2 mM incubated for 48 hrs by Annexin V-FITC/PI staining based flow cytometry. The data set is classed as functional, cell-based. The note with it: dose 0.05-0.2 mM, DDE = dose-dependent effect.
Data set [30] can be described thus: Half life in rat at 2 mg/kg,iv by HPLC-UV analysis. It counts as ADME, organism-based. The note with it: in vivo.
Data set [31] concerns NIH3T3. As to the kind of experiment: Anti-fibrogenic activity against mouse NIH3T3 cells assessed as inhibition of TGFbeta-induced alpha-SMA protein expression at 0.01 to 0.2 mM incubated for 48 hrs by western blot assay. The data set is classed as functional, cell-based. The settings on record: dose 0.01-0.2 mM, DDE = dose-dependent effect.

Here are results for 19 compounds from ChEMBL document CHEMBL5107973, “Synthesis and structure-activity relationships of pirfenidone derivatives as anti-fibrosis agents in vitro” (RSC Med Chem, 2022).

As to `O=C(CC1CCCCC1)Nc1ccc(=O)n(-c2ccccc2)c1`, the inhibition (commonly the change of the read-out against control, counted positive when it falls) at 1000 µM in the data set with NIH3T3 [1] stood at 4.5%.
The same measure, in the same setting: under `O=C(Cc1c(F)cc(F)cc1F)Nc1ccc(=O)n(-c2ccccc2)c1` stands 28.1%.
For `Cc1ccccc1CC(=O)Nc1ccc(=O)n(-c2ccccc2)c1`, in the data set on NIH3T3 [2], the IC50 (usually the midpoint of a concentration-inhibition curve) worked out at 730 µM. Also, in the data set with NIH3T3 [1], the inhibition at 1000 µM turned out to be 56.1%.
Consider `O=C(Cc1cccc(F)c1)Nc1ccc(=O)n(-c2ccccc2)c1`, for which the inhibition at 1000 µM in the data set on NIH3T3 [1] was determined as 21.9%.
For `O=C(Cc1ccc(F)cc1)Nc1ccc(=O)n(-c2ccccc2)c1`, the IC50 in the data set with NIH3T3 [2] was determined as 1560 µM. Besides, in the data set on NIH3T3 [1], the inhibition at 1000 µM worked out at 39%.
Take `O=C(Cc1cccc(Cl)c1)Nc1ccc(=O)n(-c2ccccc2)c1`: the inhibition at 1000 µM with NIH3T3 [1] stood at 27.6%.
For the compound `Cc1ccc(=O)n(-c2ccccc2)c1` [PIRFENIDONE], the Activity entry with NIH3T3 [3] was “Dde”; in the data set with NIH3T3 [4] it was 31.9%; in the data set on NIH3T3 [5], “Dde”; in the data set with NIH3T3 [8] it was “Dde”. In addition, the CLint scaled in data set [6] was found to be 1230 mL/min/kg; in [7] it was 1730 mL/min/kg. In addition, the half-life (commonly how long it takes for the measured level to halve) came out at 5.76 min in [9] and 1.46 min in data set [10]. Also, the IC50 in the data set on NIH3T3 [2] was 13700 µM.
On to `O=C(Cc1ccccc1Cl)Nc1ccc(=O)n(-c2ccccc2)c1`, for which the IC50 in the data set on NIH3T3 [2] was found to be 1980 µM. Also, the inhibition at 1000 µM in the data set with NIH3T3 [1] stood at 35.2%.
Turning to `O=C(Cc1ccc(Br)cc1)Nc1ccc(=O)n(-c2ccccc2)c1`, in the data set on NIH3T3 [2], the IC50 came to 1110 µM. Moreover, the inhibition at 1000 µM in the data set on NIH3T3 [1] came out at 45.7%.
For `O=C(Cc1ccc(Cl)cc1)Nc1ccc(=O)n(-c2ccccc2)c1` the same measures were 1340 µM and 37.1%.
For `O=C(Cc1cccc(Br)c1)Nc1ccc(=O)n(-c2ccccc2)c1`, in the data set with NIH3T3 [1], the inhibition at 1000 µM is 2.1%.
In the case of `O=C(Nc1ccc(=O)n(-c2ccccc2)c1)c1ccccc1F`, in the data set on NIH3T3 [1], the inhibition at 1000 µM worked out at 3.5%.
For the compound `Cc1ccc(CC(=O)Nc2ccc(=O)n(-c3ccccc3)c2)c(C)c1`, in the data set on NIH3T3 [2], the IC50 amounted to 240 µM. Moreover, the inhibition at 1000 µM in the data set on NIH3T3 [1] was 68.9%.
Consider `O=C(Cc1ccccc1F)Nc1ccc(=O)n(-c2ccccc2)c1`, for which the inhibition at 1000 µM in the data set on NIH3T3 [1] is 28.7%.
Still for that read-out and setting: under `Cc1cccc(CC(=O)Nc2ccc(=O)n(-c3ccccc3)c2)c1` stands 19.8%.
Consider `Cc1ccc(CC(=O)Nc2ccc(=O)n(-c3ccccc3)c2)cc1`, for which the half-inhibitory concentration (IC50) in the data set with NIH3T3 [2] was found to be 950 µM. Further, the inhibition at 1000 µM with NIH3T3 [1] is 52.2%.
On to `Cc1cc(C)c(CC(=O)Nc2ccc(=O)n(-c3ccccc3)c2)c(C)c1`, for which the area under the curve AUC(0-t) – broadly, the area under the concentration-time curve up to a stated or last time point – stood at 701 ng·h/mL in data set [11] and 332 ng·h/mL in [16]. Moreover, the Activity entry in the data set on NIH3T3 [12] was “Dde”; with NIH3T3 [17] it was “Dde”; with NIH3T3 [18], “Dde”; in the data set on NIH3T3 [21], 34.5%; in the data set with NIH3T3 [24] it was “Dde”; in the data set on NIH3T3 [28], “Dde”. Besides, the Activity entry in the data set on NIH3T3 [29] and with NIH3T3 [31] was “Dde” each time. For the same compound, the values for the AUC in [13] and in data set [14] were 406.5 ng·h/mL and 701.17 ng·h/mL, respectively. In data set [15], this compound returned an F of 51%. The figures for the MRT last in data set [19] and in [25] were 290 min and 51.4 min, respectively. For the same compound, the Cmax (usually the highest concentration seen after dosing) in data set [20] was determined as 68.5 ng/mL; in data set [22] it was 712 ng/mL. Further, the CLint scaled was 63.9 mL/min/kg in data set [6] and 110 mL/min/kg in data set [7]. The time to peak (Tmax) (commonly the time at which the peak concentration occurs) in data set [23] turned out to be 60.7 min; in data set [27] it was 4.98 min. The half-life in data set [26] is 166 min; in [9], 27.2 min; in [10] it was 22.5 min; in [30] it was 41.6 min. For the same compound, the concentration for half-maximal inhibition (IC50) in the data set on NIH3T3 [2] worked out at 140 µM. In addition, the inhibition at 1000 µM in the data set with NIH3T3 [1] was determined as 74.4%.
With `O=C(Cc1ccccc1C(F)(F)F)Nc1ccc(=O)n(-c2ccccc2)c1`, the IC50 with NIH3T3 [2] was found to be 1360 µM. Further, the inhibition at 1000 µM with NIH3T3 [1] was 37.8%.
For `O=C(Cc1ccccc1Br)Nc1ccc(=O)n(-c2ccccc2)c1` the same measures were 1090 µM and 48.9%.
